Test results published in patent US7833795B2, “Assessment of cardiovascular risk using isoprostane biomarkers and COX-2 selective inhibitors” (The Trustees of the University of Pennsylvania, priority 2004, dated 2010).

Assays:
Format in all cases: in vivo, rat
Male Fisher 344 rats [1] = assay: Plasma MDA, TBA colorimetric assay with 3rd derivative spectroscopy; conditions: plasma
Method: (§1) Animals and treatment protocol: Male Fisher 344 rats (260-280 g) obtained from Charles River Laboratories (Raleigh, N.C.) were used in all experiments. The animals were housed three to a cage. Autoclaved hardwood bedding was used in solid-bottom polycarbonate cages with filter tops. Animal rooms were maintained at 20-25° C. with 35-70% relative humidity with alternating 12-hour light and dark cycles. The rats had free access to deionized, reverse-osmosis-treated water and received autoclaved NIH 31 rodent chow (Zeigler Bros., Gardners, Pa.) ad libitum. For all experiments, rats were fasted overnight and then administered intraperitoneal injections of carbon tetrachloride in canola oil. Control rats received an equal volume of canola oil. Fasting continued throughout the experiment. Rats were anesthetized with Nembutal (0.1 ml/100 g body weight) and 5 ml blood was removed from the dorsal aorta proximal to its bifurcation into the common iliac arteries.
(§2) Carbon tetrachloride (CCL4) treatment: Animals from each of the three dose groups (Control-canola oil, 120 mg/kg CCl4 i.p. and 1200 mg/kg CCl4 i.p.) were investigated at three time points (2, 7, and 16 hours after CCl4 injection). Indomethacin-pretreated rats were also investigated at the same three time points, and the meclofenamic acid-pretreated rats were investigated at one time point (7 hours). Each group consisted of five rats for each analysis, except the meclofenamic acid pretreatment group which consisted of six rats. Animal treatment, sample preparation, assessment of liver histology and serum enzyme activities are described elsewhere (Kadiiska et al., 2000, Free Radic. Biol. Med. 28: 838-845; Jackson, 1989, J. Pharmacol. Exp. Ther. 250: 9-21) and were carried out at NIEHS, Research Triangle Park, N.C.
(§3) Plasma sample preparation: Blood (5 ml) was drawn through single draw Vacutainer® needles (21 Gauge) into open Vacutainer® blood collection tubes containing heparin. The tubes were gently inverted 2-3 times for mixing and immediately placed on ice. Blood was centrifuged (2,000 rpm for 10 minutes at 4° C.) no more than 30 minutes after collection, and the plasma was collected, frozen on dry ice and stored at −70° C.
Two colorimetric-based assays, using third derivative spectroscopy, were also used to measure MDA in plasma. The TBA colorimetric assay is designed to measure free MDA and MDA-protein adducts (Schiff base), and therefore includes mild acid hydrolysis. The Bioxytech® LPO-586™ colorimetric assay is based upon the reaction of the chromogenic reagent N-methyl-2-phenylindole (NMPI) with MDA at 45° C. One molecule of free MDA combines with 2 molecules of the chromogenic agent to produce a stable chromophore with a maximal absorbance at 586 nm. In both assays, the concentration of MDA was determined with 3rd derivative spectroscopy. Both assays were developed by OXIS Research Inc., Portland, Oreg., and were performed at OXIS and at Loyola University Medical Center, Maywood, Ill.

Male Fisher 344 rats [2] = assay: Plasma protein carbonyls
Method: as §1, §2, §3
Several different assays for oxidation products of proteins were employed. The protein carbonyl content (Agarwal and Sohal, 1995, Mech. Ageing Develop. 85: 55-63), indicative of plasma protein oxidative damage, was measured according to the method of Levine et al. (Levine et al., 1994, Meth. Enzymol. 233: 346-357), based on derivatization of carbonyls with tritiated borohydride, as described in detail by Yan and Sohal (2000, Current Protocols Protein Science 144: 105-128). The isolated protein was counted in a Beckman scintillation counter and calculated using a standard curve. The measurements were performed at the University of Southern California, Los Angeles.

Male Fisher 344 rats [3] = assay: Urinary free plus esterified 8-iso-PGF2α by immunoassay; conditions: for Free plus esterified 8-iso PGF2a (by immunoassay): urine
Method: as §1
Indomethacin pretreatment: The indomethacin regimen used has been previously shown to inhibit COX activity in rats by 90% (dose of 5 mg/kg s.c. 24 hours, 12 hours, and 2 hours prior to the injection of CCl4) (Jackson, 1989, J. Pharmacol. Exp. Ther. 250: 9-21). An additional booster dose was injected 8 hours after the last injection of CCl4 for the measurements performed 16 hours after treatment with CCl4.
Meclofenamic acid pretreatment: Meclofenamic acid was injected at a dose of 5 mg/kg i.p. 12 h and 2 h prior to the injection of CCl4.
as §2
(§4) Urine sample preparation: The day prior to treatment, both experimental and control animals were placed in stainless steel metabolic cages especially designed for urine collection. For Experimental Example 2, animals were placed in metabolic cages immediately after the last injection of indomethacin or meclofenamic acid. Urine was collected (in dark vials) from the animals during the following intervals: 2 to 7 hours and 7 to 16 hours after CCl4 or canola oil (controls) treatment. Urine samples from indomethacin-pretreated rats were collected from 2 to 7 hours and 7 to 16 hours after the injection of CCl4, whereas samples from meclofenamic-acid-pretreated rats were collected only from 2 to 7 hours after the injection. All urine samples were immediately frozen on dry ice and stored at −70° C.
Urinary 8-iso-PGF2α concentrations were measured by the competitive immunoassay procedure in which 8-iso-PGF2α conjugated to alkaline phosphatase competed with the test analyte for antibody specific for the isoprostane. The anti-8-iso-PGF2α antibody was captured by anti-Fc antibodies immobilized on a microtiter plate. The assay was developed by Assay Designs, Inc., Ann Arbor, Mich. and performed at OXIS Research, Portland, Oreg.
In an additional method not recited in Example 1, an immunoassay was used to measure the sum of free plus esterified 8-iso-PGF2α. The immunoassay used anti-8-iso-PGF2α antibody was developed by Assay Designs, Inc., Ann Arbor, Mich., and performed at Oxis Research, Portland, Oreg.

Male Fisher 344 rats [4] = assay: Urinary 8-OHdG by immunoassay; conditions: for 8-OHdG (by immunoassay): urine
Method: as §1, §2, §4
8-Hydroxy-2′-deoxyguanosine (8-OHdG) was measured using an immunoassay. In brief, 8-OHdG was determined using a microtiter ELISA method where the test analyte competed with monoclonal antibody against 8-OHdG for 8-OHdG bound to the plate. After incubation and washing, an anti-mouse second antibody conjugated to horseradish peroxidase was used to determine the bound monoclonal antibody. The color yield is […] to the analyte concentration. Data reduction was by 4-parameter logistic curve fit. The assay was developed and measurements were performed by Oxis Research, Portland, Oreg.

ClC(Cl)(Cl)Cl [CCl4, Carbon tetrachloride]
plasma MDA (Male Fisher 344 rats [1]; CCl4 120 mg/kg i.p., 2 h): 0.268 µM | plasma MDA (Male Fisher 344 rats [1]; CCl4 120 mg/kg i.p., 7 h): 0.209 µM | plasma MDA (Male Fisher 344 rats [1]; CCl4 120 mg/kg i.p., 16 h): 0.214 µM | plasma MDA (Male Fisher 344 rats [1]; CCl4 1200 mg/kg i.p., 2 h): 0.686 µM | plasma MDA (Male Fisher 344 rats [1]; CCl4 1200 mg/kg i.p., 7 h): 0.274 µM | plasma MDA (Male Fisher 344 rats [1]; CCl4 1200 mg/kg i.p., 16 h): 0.156 µM | Protein carbonyls (by HPLC) (Male Fisher 344 rats [2]; CCl4 120 mg/kg i.p., 2 h): 0.40 nmol/mg protein | Protein carbonyls (by HPLC) (Male Fisher 344 rats [2]; CCl4 120 mg/kg i.p., 7 h): 0.42 nmol/mg protein | Protein carbonyls (by HPLC) (Male Fisher 344 rats [2]; CCl4 120 mg/kg i.p., 16 h): 0.51 nmol/mg protein | Protein carbonyls (by HPLC) (Male Fisher 344 rats [2]; CCl4 1200 mg/kg i.p., 2 h): 0.53 nmol/mg protein | Protein carbonyls (by HPLC) (Male Fisher 344 rats [2]; CCl4 1200 mg/kg i.p., 7 h): 0.59 nmol/mg protein | Protein carbonyls (by HPLC) (Male Fisher 344 rats [2]; CCl4 1200 mg/kg i.p., 16 h): 0.48 nmol/mg protein | Free plus esterified 8-iso PGF2a (by immunoassay) (Male Fisher 344 rats [3]; CCl4 120 mg/kg i.p., 7 h): 25.7 ng/mgcreatinine | Free plus esterified 8-iso PGF2a (by immunoassay) (Male Fisher 344 rats [3]; CCl4 120 mg/kg i.p., 16 h): 17.4 ng/mgcreatinine | Free plus esterified 8-iso PGF2a (by immunoassay) (Male Fisher 344 rats [3]; CCl4 1200 mg/kg i.p., 7 h): 57.0 ng/mgcreatinine | Free plus esterified 8-iso PGF2a (by immunoassay) (Male Fisher 344 rats [3]; CCl4 1200 mg/kg i.p., 16 h): 30.4 ng/mgcreatinine | increase of urinary 8-iso-PGF2α (immunoassay) (Male Fisher 344 rats [3]; high dose CCl4, 7 h): 10 fold | increase of urinary 8-iso-PGF2α (immunoassay) (Male Fisher 344 rats [3]; high dose CCl4, 16 h): 6 fold | 8-OHdG (by immunoassay) (Male Fisher 344 rats [4]; CCl4 120 mg/kg i.p., 7 h): 42 ng/mg creatinine | 8-OHdG (by immunoassay) (Male Fisher 344 rats [4]; CCl4 120 mg/kg i.p., 16 h): 83 ng/mg creatinine | 8-OHdG (by immunoassay) (Male Fisher 344 rats [4]; CCl4 1200 mg/kg i.p., 7 h): 165 ng/mg creatinine | 8-OHdG (by immunoassay) (Male Fisher 344 rats [4]; CCl4 1200 mg/kg i.p., 16 h): 60 ng/mg creatinine | increase of urinary 8-OHdG (Male Fisher 344 rats [4]; high dose CCl4, 7 h): 7 fold | increase of urinary 8-OHdG (Male Fisher 344 rats [4]; high dose CCl4, 16 h): 3 fold
